In BindingDB's records for doi:10.1021/jm00403a001 (Smith Kline & French Laboratories, 1988):
pKi: −log10 of the molar value.

Molecular target: Vasopressin V2 receptor (Canis familiaris)
Test: In vitro antagonist activity was measured by inhibition of vasopressin-stimulated adenylate cyclase in renal medullary preparation in dog

pKi: 3.00
Compound: CCOc1ccc(C[C@H]2NC(=O)CC3(CCCCC3)CCC[C@@H](C(=O)N3CCC[C@H]3C(=O)N[C@@H](CCCN=C(N)N)C(N)=O)NC(=O)[C@H](CC(N)=O)NC(=O)[C@H](C(C)C)NC(=O)[C@H](Cc3ccccc3)NC2=O)cc1 [1-[13-Benzyl-19-carbamoylmethyl-10-(4-ethoxy-benzyl)-16-isopropyl-8,11,14,17,20-pentaoxo-9,12,15,18,21-pentaaza-spiro[5.19]pentacosane-22-carbonyl]-pyrrolidine-2-carboxylic acid (1-carbamoyl-4-guanidino-butyl)-amide]
